Results published in patent EP3064205A1, “Therapeutic use of isomeric forms of 2-(4-chlorophenyl)quinolin-4-yl)(piperidin-2-yl)methanol” (Glionova AB, priority 2015, dated 2016).
Where two headings read alike, the source gives them in different places.

Legend:
Assay in all cases: 3D clonogenic assay (PDX)
Type in all cases: cell-based, human
LXFL 1674 = details: LXFL 1674, Lung Large Cell; for IC50: Homo sapiens
How it was run: (§1)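 Soft-agar colony formation, xenograft-derived cells (NMRI nu/nu passaged), 10-pt dilution 50 µM–0.0015 µM in duplicate, continuous drug overlay from 24 h post-plating. Incubation 8–13 d, 37 °C, 7.5% CO2. INT stain 24 h before automated colony count; relative or absolute (T/C = 50%) IC50 by 4-parameter fit.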

RXF 1781 = details: RXF 1781, Renal; for IC50: Homo sapiens
How it was run: as §1

CXF 647 = details: CXF 647, Colorectal; for IC50: Homo sapiens
How it was run: as §1

PRXF MRI-H-1579 = details: PRXF MRI-H-1579, Prostate; for IC50: Homo sapiens
How it was run: as §1

CXF 742 = details: CXF 742, Colorectal; for IC50: Homo sapiens
How it was run: as §1

PAXF 2046 = details: PAXF 2046, Pancreas; for IC50: Homo sapiens
How it was run: as §1

PAXF 546 = details: PAXF 546, Pancreas; for IC50: Homo sapiens, PAXF546
How it was run: as §1

PAXF 1872 = details: PAXF 1872, Pancreas; for IC50: Homo sapiens
How it was run: as §1

BXF 1258 = details: BXF 1258, Bladder; for IC50: Homo sapiens
How it was run: as §1

O[C@H](c1cc(-c2ccc(Cl)cc2)nc2ccccc12)[C@@H]1CCCCN1 [S1, (R)-(2-(4-chlorophenyl)quinolin-4-yl)((S)-piperidin-2-yl)methanol]
IC50 (LXFL 1674; read-out: abs. IC50): 6.68 µM | IC50 (LXFL 1674; read-out: rel. IC50): 6.59 µM | b (bottom plateau of concentration-effect curve) (LXFL 1674): 9 | t (top plateau of concentration-effect curve) (LXFL 1674): 93 | IC50 (RXF 1781; read-out: abs. IC50): 11.1 µM | IC50 (RXF 1781; read-out: rel. IC50): 11.1 µM | b (bottom plateau of concentration-effect curve) (RXF 1781): 8 | t (top plateau of concentration-effect curve) (RXF 1781): 112 | b (bottom plateau of concentration-effect curve) (CXF 647): 20 | t (top plateau of concentration-effect curve) (CXF 647): 97 | IC50 (CXF 647; read-out: abs. IC50): 24.2 µM | IC50 (CXF 647; read-out: rel. IC50): 16.5 µM | IC50 (PRXF MRI-H-1579; read-out: abs. IC50): 8.94 µM | IC50 (PRXF MRI-H-1579; read-out: rel. IC50): 8.76 µM | b (bottom plateau of concentration-effect curve) (PRXF MRI-H-1579): 21 | t (top plateau of concentration-effect curve) (PRXF MRI-H-1579): 112 | b (bottom plateau of concentration-effect curve) (CXF 742): 0 | t (top plateau of concentration-effect curve) (CXF 742): 100 | IC50 (CXF 742; read-out: abs. IC50): 41.3 µM | IC50 (CXF 742; read-out: rel. IC50): 41.3 µM | IC50 (PAXF 2046; read-out: abs. IC50): 18.6 µM | IC50 (PAXF 2046; read-out: rel. IC50): 9.45 µM | b (bottom plateau of concentration-effect curve) (PAXF 2046): 38 | t (top plateau of concentration-effect curve) (PAXF 2046): 100 | IC50 (PAXF 546; read-out: abs. IC50): 9.22 µM | IC50 (PAXF 546; read-out: rel. IC50): 9.07 µM | b (bottom plateau of concentration-effect curve) (PAXF 546): 25 | t (top plateau of concentration-effect curve) (PAXF 546): 96 | IC50 (PAXF 1872; read-out: abs. IC50): 9.3 µM | IC50 (PAXF 1872; read-out: rel. IC50): 8.89 µM | b (bottom plateau of concentration-effect curve) (PAXF 1872): 42 | t (top plateau of concentration-effect curve) (PAXF 1872): 89 | b (bottom plateau of concentration-effect curve) (BXF 1258): 44 | t (top plateau of concentration-effect curve) (BXF 1258): 103 | IC50 (BXF 1258; read-out: abs. IC50): 7.47 µM | IC50 (BXF 1258; read-out: rel. IC50): 2.54 µM
